Results on 42 compounds are retold here after patent publication US9765075B2, “Substituted bridged urea analogs as sirtuin modulators” (GLAXOSMITHKLINE LLC, priority 2013, dated 2017).

The experiment deals with T1, SIRT1 (Homo sapiens, UniProt Q96EB6).
T1 sequence (Q96EB6 1-747): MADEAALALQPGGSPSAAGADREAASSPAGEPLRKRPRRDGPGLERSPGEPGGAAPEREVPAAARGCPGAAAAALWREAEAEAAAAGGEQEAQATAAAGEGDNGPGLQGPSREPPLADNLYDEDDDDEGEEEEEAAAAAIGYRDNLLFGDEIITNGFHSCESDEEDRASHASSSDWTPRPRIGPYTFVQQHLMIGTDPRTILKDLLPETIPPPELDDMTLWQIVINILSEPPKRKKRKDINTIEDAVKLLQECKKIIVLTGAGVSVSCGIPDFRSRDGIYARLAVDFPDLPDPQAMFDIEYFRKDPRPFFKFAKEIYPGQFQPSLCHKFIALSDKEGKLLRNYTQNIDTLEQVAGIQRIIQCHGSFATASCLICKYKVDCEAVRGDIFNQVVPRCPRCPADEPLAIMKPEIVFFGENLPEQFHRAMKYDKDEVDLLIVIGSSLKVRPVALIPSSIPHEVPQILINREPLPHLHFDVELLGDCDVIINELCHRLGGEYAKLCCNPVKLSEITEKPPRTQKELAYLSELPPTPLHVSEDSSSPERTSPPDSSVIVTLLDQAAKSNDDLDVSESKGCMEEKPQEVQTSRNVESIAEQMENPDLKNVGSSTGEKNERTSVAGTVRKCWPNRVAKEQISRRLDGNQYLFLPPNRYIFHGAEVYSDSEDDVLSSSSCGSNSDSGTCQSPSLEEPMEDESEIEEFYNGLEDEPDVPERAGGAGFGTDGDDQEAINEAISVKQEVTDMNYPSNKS
As to the kind of experiment: Trp mass spectrometry assay (SIRT1 activation). It is filed as biochemical. The following applies: Trp peptide substrate; for Tryp AVG EC1.5 (μM): concentration of test compound that results in 150% activation of SIRT1; for Emax: percent maximum fold activation of SIRT1, read-out: Tryp % Fold Act. In short, it runs like this:
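N-His-tagged SIRT1 (10 nM), expressed in E. coli, was incubated with 0.5 μM Ac-RHKK(Ac)W-NH2 peptide and 120 μM NAD+ for 25 min at 25 °C in HEPES pH 7.5 with […]. The reaction was stopped with formic acid and O-acetyl-ADP-ribose or deacetylated peptide was quantified by mass spectrometry. Results are given as EC1.5 and percent maximal activation relative to DMSO control.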

Consider `N#Cc1cccc(-c2ccc3c(n2)N(C(=O)Nc2cnccn2)[C@H]2CCCN3C2)c1` [Example 351], for which the “Tryp AVG EC1.5 (μM)” value is listed as “A (EC1.5<1 μM)” and the Emax was at least 150%.

Consider `N#Cc1cccc(-c2ccc3c(n2)N(C(=O)Nc2ccncn2)[C@H]2CCCN3C2)c1` [Example 352], for which the “Tryp AVG EC1.5 (μM)” value is given as “A (EC1.5<1 μM)” and the Emax was at least 150%.

For `N#Cc1cccc(-c2ccc3c(n2)N(C(=O)Nc2cncc(F)c2)[C@H]2CCCN3C2)c1` [Example 353], the “Tryp AVG EC1.5 (μM)” value is listed as “A (EC1.5<1 μM)” and the Emax is at least 150%.

On to `O=C(Nc1ccccn1)N1c2nc(-c3cccc(CC(O)CO)c3)ccc2N2CC[C@H]1C2` (stereo partly drawn) [Example 354], for which the “Tryp AVG EC1.5 (μM)” value is “A (EC1.5<1 μM)” and the Emax is at least 150%.

Regarding `COc1cc(NC(=O)N2c3nc(-c4cccc(CC(O)CO)c4)ccc3N3CC[C@H]2C3)ncn1` (stereo partly drawn) [Example 355], the “Tryp AVG EC1.5 (μM)” value is on record as “B (EC1.5 1-25 μM)” and the Emax was at least 150%.

For `O=C(Nc1ccc(F)cn1)N1c2nc(-c3cccc(CC(O)CO)c3)ccc2N2CC[C@H]1C2` (stereo partly drawn) [Example 356], the “Tryp AVG EC1.5 (μM)” value was “A (EC1.5<1 μM)” and the Emax was at least 150%.

Regarding `O=C(Nc1ccncc1F)N1c2nc(-c3cccc(CC(O)CO)c3)ccc2N2CC[C@H]1C2` (stereo partly drawn) [Example 357], the “Tryp AVG EC1.5 (μM)” value is reported as “B (EC1.5 1-25 μM)” and the Emax is at least 150%.

With `COc1cc(NC(=O)N2c3nc(-c4ccnc(F)c4)ccc3N3CC[C@H]2C3)ncn1` [Example 358], the “Tryp AVG EC1.5 (μM)” value is given as “C (EC1.5>25 μM)” and the Emax was below 150%.

As for `O=C(Nc1ccc(F)cn1)N1c2nc(N3CCCC(C(F)(F)F)C3)ccc2N2CCC[C@H]1C2` (stereo partly drawn) [Example 359], the “Tryp AVG EC1.5 (μM)” value is “A (EC1.5<1 μM)” and the Emax was at least 150%.

`O=C(Nc1ccncc1)N1c2nc(N3CCCC(C(F)(F)F)C3)ccc2N2CCC[C@H]1C2` (stereo partly drawn) [Example 360]: the “Tryp AVG EC1.5 (μM)” value is reported as “A (EC1.5<1 μM)” and the Emax is at least 150%.

For the compound `O=C(Nc1cc(O)ncn1)N1c2nc(N3CCCC(C(F)(F)F)C3)ccc2N2CCC[C@H]1C2` (stereo partly drawn) [Example 361], the “Tryp AVG EC1.5 (μM)” value is reported as “A (EC1.5<1 μM)” and the Emax was at least 150%.

Consider `O=C(Nc1ccc(F)cn1)N1c2nc(N3CCCC(C(F)(F)F)C3)ccc2N2CCC[C@@H]1C2` (stereo partly drawn) [Example 362], for which the “Tryp AVG EC1.5 (μM)” value is reported as “C (EC1.5>25 μM)” and the Emax was at least 150%.

With `O=C(Nc1cnccn1)N1c2nc(-c3cc(C(F)(F)F)cc(C(F)(F)F)c3)ccc2C2CC[C@H]1C2` [Example 363], the “Tryp AVG EC1.5 (μM)” value was “B (EC1.5 1-25 μM)” and the Emax is at least 150%.

`O=C(Nc1cnccn1)N1c2nc(-c3cc(Cl)cc(Cl)c3)ccc2N2CC[C@H]1C2` [Example 364]: the “Tryp AVG EC1.5 (μM)” value is “B (EC1.5 1-25 μM)” and the Emax was at least 150%.

On to `O=C(Nc1cccc(-c2cnco2)c1)N1c2nc(-c3cccc(Cl)c3)ccc2N2CC[C@H]1C2` [Example 365], for which the “Tryp AVG EC1.5 (μM)” value is reported as “A (EC1.5<1 μM)” and the Emax is at least 150%.

For the compound `COc1cncc(NC(=O)N2c3nc(-c4cccc(N5CCCC5)c4)ccc3N3CC[C@H]2C3)n1` [Example 366], the “Tryp AVG EC1.5 (μM)” value is recorded as “A (EC1.5<1 μM)” and the Emax is at least 150%.

In the case of `O=C(Nc1ccccn1)N1c2nc(-c3ccnc(N4CCC(C(F)(F)F)C4)c3)ccc2N2CC[C@H]1C2` (stereo partly drawn) [Example 367], the “Tryp AVG EC1.5 (μM)” value was “A (EC1.5<1 μM)” and the Emax was at least 150%.

Turning to `COc1cc(NC(=O)N2c3nc(-c4ccnc(N5CCC(C(F)(F)F)C5)c4)ccc3N3CC[C@H]2C3)ncn1` (stereo partly drawn) [Example 368], the “Tryp AVG EC1.5 (μM)” value is recorded as “B (EC1.5 1-25 μM)” and the Emax is at least 150%.

`O=C(Nc1ccccn1)N1c2nc(-c3cncc(C(F)(F)F)c3)ccc2N2CCC[C@H]1C2` [Example 369]: the “Tryp AVG EC1.5 (μM)” value was “A (EC1.5<1 μM)” and the Emax is at least 150%.

For the compound `Cc1n[nH]cc1-c1ccc2c(n1)N(C(=O)Nc1ccccn1)[C@H]1CCN2C1` [Example 370], the “Tryp AVG EC1.5 (μM)” value is given as “B (EC1.5 1-25 μM)” and the Emax was at least 150%.

Consider `NC(=O)c1cncc(-c2ccc3c(n2)N(C(=O)Nc2ccccn2)[C@H]2CCN3C2)c1` [Example 371], for which the “Tryp AVG EC1.5 (μM)” value is recorded as “B (EC1.5 1-25 μM)” and the Emax is at least 150%.

In the case of `O=C(Nc1ccccn1)N1c2nc(-c3ccc4nonc4c3)ccc2N2CC[C@H]1C2` [Example 372], the “Tryp AVG EC1.5 (μM)” value was “B (EC1.5 1-25 μM)” and the Emax is at least 150%.

As for `N#Cc1cncc(-c2ccc3c(n2)N(C(=O)Nc2ccccn2)[C@H]2CCN3C2)c1` [Example 373], the “Tryp AVG EC1.5 (μM)” value is given as “A (EC1.5<1 μM)” and the Emax was at least 150%.

Turning to `O=C(Nc1ccccn1)N1c2nc(-c3cncc(F)c3)ccc2N2CC[C@H]1C2` [Example 374], the “Tryp AVG EC1.5 (μM)” value was “B (EC1.5 1-25 μM)” and the Emax is at least 150%.

Turning to `CS(=O)(=O)c1cncc(-c2ccc3c(n2)N(C(=O)Nc2ccccn2)[C@H]2CCCN3C2)c1` [Example 375], the “Tryp AVG EC1.5 (μM)” value is recorded as “A (EC1.5<1 μM)” and the Emax is at least 150%.

Consider `CS(=O)(=O)c1cncc(-c2ccc3c(n2)N(C(=O)Nc2cccnc2)[C@H]2CCCN3C2)c1` [Example 376], for which the “Tryp AVG EC1.5 (μM)” value is given as “A (EC1.5<1 μM)” and the Emax was at least 150%.

Take `CS(=O)(=O)c1cncc(-c2ccc3c(n2)N(C(=O)Nc2cncc(F)c2)[C@H]2CCCN3C2)c1` [Example 377]: the “Tryp AVG EC1.5 (μM)” value is on record as “A (EC1.5<1 μM)” and the Emax is at least 150%.

For the compound `CS(=O)(=O)c1cncc(-c2ccc3c(n2)N(C(=O)Nc2cnccn2)[C@H]2CCCN3C2)c1` [Example 378], the “Tryp AVG EC1.5 (μM)” value was “A (EC1.5<1 μM)” and the Emax was at least 150%.

For the compound `CS(=O)(=O)c1cncc(-c2ccc3c(n2)N(C(=O)Nc2ccncn2)[C@H]2CCCN3C2)c1` [Example 379], the “Tryp AVG EC1.5 (μM)” value is on record as “A (EC1.5<1 μM)” and the Emax is at least 150%.

`CS(=O)(=O)c1cncc(-c2ccc3c(n2)N(C(=O)Nc2cccnn2)[C@H]2CCCN3C2)c1` [Example 380]: the “Tryp AVG EC1.5 (μM)” value is reported as “A (EC1.5<1 μM)” and the Emax was at least 150%.

On to `N#Cc1cccc(-c2ccc3c(n2)N(C(=O)Nc2cccnn2)[C@H]2CCCN3C2)c1` [Example 381], for which the “Tryp AVG EC1.5 (μM)” value was “B (EC1.5 1-25 μM)” and the Emax is at least 150%.

`CC(C)(C)OC(=O)N1CCCN(c2ccc3c(n2)N(C(=O)Nc2ccncn2)[C@H]2CCCN3C2)CC1` [Example 382]: the “Tryp AVG EC1.5 (μM)” value was “C (EC1.5>25 μM)” and the Emax was below 150%.

On to `Cc1nc(NC(=O)N2c3nc(-c4cccc(N(C)C)c4)ccc3N3CCC[C@H]2C3)sc1C` [Example 383], for which the “Tryp AVG EC1.5 (μM)” value was “A (EC1.5<1 μM)” and the Emax was at least 150%.

Regarding `CN(C)c1cccc(-c2ccc3c(n2)N(C(=O)Nc2ccc(F)cn2)[C@H]2CCCN3C2)c1` [Example 384], the “Tryp AVG EC1.5 (μM)” value was “B (EC1.5 1-25 μM)” and the Emax is at least 150%.

Turning to `COc1cc(NC(=O)N2c3nc(-c4cccc(N(C)C)c4)ccc3N3CCC[C@H]2C3)ncn1` [Example 385], the “Tryp AVG EC1.5 (μM)” value is listed as “A (EC1.5<1 μM)” and the Emax was at least 150%.

For the compound `CN(C)c1cccc(-c2ccc3c(n2)N(C(=O)Nc2ccccn2)[C@H]2CCCN3C2)c1` [Example 386], the “Tryp AVG EC1.5 (μM)” value was “B (EC1.5 1-25 μM)” and the Emax was at least 150%.

For `O=C(Nc1ccccn1)N1c2nc(-c3cccc(Cl)c3)ccc2N2CCC[C@H]1C2` [Example 387], the “Tryp AVG EC1.5 (μM)” value was “A (EC1.5<1 μM)” and the Emax is at least 150%.

As to `O=C(Nc1ccccn1)N1c2nc(-c3ccnc(N4CCC(F)(F)C4)c3)ccc2N2CC[C@H]1C2` [Example 388], the “Tryp AVG EC1.5 (μM)” value is “A (EC1.5<1 μM)” and the Emax is at least 150%.

Take `O=C(Nc1cnccn1)N1c2nc(-c3ccnc(N4CCC(C(F)(F)F)C4)c3)ccc2N2CC[C@H]1C2` (stereo partly drawn) [Example 389]: the “Tryp AVG EC1.5 (μM)” value is “A (EC1.5<1 μM)” and the Emax is at least 150%.

With `COc1cc(NC(=O)N2c3nc(-c4ccnc(N5CCC(F)(F)C5)c4)ccc3N3CC[C@H]2C3)ncn1` [Example 390], the “Tryp AVG EC1.5 (μM)” value is on record as “B (EC1.5 1-25 μM)” and the Emax was at least 150%.

Take `O=C(Nc1ccc(F)cn1)N1c2nc(-c3ccnc(N4CCC(C(F)(F)F)C4)c3)ccc2N2CC[C@H]1C2` (stereo partly drawn) [Example 391]: the “Tryp AVG EC1.5 (μM)” value is “A (EC1.5<1 μM)” and the Emax was at least 150%.

As to `O=C(Nc1cccnc1)N1c2nc(-c3cncc(C(F)(F)F)c3)ccc2N2CCC[C@H]1C2` [Example 392], the “Tryp AVG EC1.5 (μM)” value was “A (EC1.5<1 μM)” and the Emax is at least 150%.
